# Article PMC9362525 (Diabetologia, 2022)
# Read-outs that look alike come from different tables or passages of the source.
# Legend:
# [1] = system: men with T1DM and healthy men; assay type: in vivo, human
# [2] = system: human subcutaneous primary preadipocytes; assay type: cell-based; settings: for reduction of basal and insulin-stimulated glucose uptake: dose-dependent, exposure during differentiation
# [3] = system: adult participants, liver steatosis by VCTE; settings: multivariable adjusted
# patients with T2D = assay type: in vivo, human; settings: for change in LVEF with acipimox: resting
# human delta cells = assay type: cell-based
# [4] = system: β-cells from Ins2GFP knock-in mice; assay type: cell-based, mouse
# [5] = system: skeletal muscle of type 2 diabetes patients; settings: 5 weeks
# [6] = system: individuals with prediabetes; settings: 2 weeks
# T2DM and NGT subjects = settings: for EGP after drug: 10 mg single dose, 4 hours; for increase in renal glucose production (RGP): non-significant
# patients with T2DM = assay type: in vivo, human; settings: all
# [7] = FAERS 2013 Q1-2020 Q4
# participants with NAFLD = assay type: in vivo, human
# human β-cells = assay type: cell-based
# [8] = system: people with type 2 diabetes; assay type: in vivo, human
# [9] = system: wounds of streptozotocin-diabetic C57BL/6 mice; assay type: in vivo, mouse
# HFD/STZ C57Bl/6 mice = assay type: in vivo, mouse
# C57BL/6J mice = assay type: in vivo, mouse
# [10] = system: youth with type 2 diabetes; assay type: in vivo, human
# [11] = system: patients with obesity and T2D; assay type: in vivo, human
# EndoC-βH1 cells = assay type: cell-based, human; settings: 100 nM
# [12] = 10 mg once daily, LS mean (95% CI)
# [13] = before RYGB, GIP […], GLP-1 1 pmol/kg/min, ~15 mM glucose
compound,measurement,setting,value
3-hydroxybutyrate [3-OHB],blood D-3-OHB concentration during infusion,"[1]; CTR, from 0.2±0.03",1.0 ± 0.1 mmol/L
same,circulating FFA concentration after infusion,"[1]; CTR, from 0.48±0.09",0.21 ± 0.04 mmol/L
same,blood D-3-OHB concentration during infusion,"[1]; T1DM, from 0.2±0.06",1.2 ± 0.12 mmol/L
same,circulating FFA concentration after infusion,"[1]; T1DM, from 0.68±0.12",0.15 ± 0.03 mmol/L
"O=C1CCc2ccc(OCCCCN3CCN(c4cccc(Cl)c4Cl)CC3)cc2N1 [ARI, aripiprazole]",reduction of basal and insulin-stimulated glucose uptake,[2],≤ 70%
same,reduction of preadipocyte differentiation rate,"[2]; supra-therapeutic concentrations, 14 days",≤ 80%
"CCC(CCC(C)O)COC(=O)c1ccccc1C(=O)O (centres unmarked) [MEHHP, mono(2-ethyl-5-hydroxyhexyl) phthalate]",OR for NAFLD per unit increase of urinary concentration,[3],1.01
"CCC(CCC(C)=O)COC(=O)c1ccccc1C(=O)O (centres unmarked) [MEOHP, mono(2-ethyl-5-oxohexyl) phthalate]",OR for NAFLD per unit increase of urinary concentration,[3],1.01
"Cc1cc2c(s1)Nc1ccccc1N=C2N1CCN(C)CC1 [OLA, olanzapine]",adipogenesis or lipid and glucose metabolism,[2]; 0.2 and 2 μM during differentiation,did not affect
same,increase in LEP expression,[2]; present during differentiation,~ 2 fold
Cc1cnc(C(=O)O)c[n+]1[O-] [acipimox],reduction of FFAs,"patients with T2D; acute, at all visits",~ 35%
same,change in LVEF with acipimox,patients with T2D; during empagliflozin treatment,-6±2%
same,change in LVEF with acipimox,patients with T2D; during insulin treatment,-5.4±1%
CNC[C@H](O)c1ccc(O)c(O)c1 [adrenaline],change in K+-stimulated exocytosis,human delta cells,+56%
same,change in K+-stimulated exocytosis vs diazoxide only,human delta cells,-59%
N=C(N)NCCC[C@H](N)C(=O)O [arginine],Ins2 gene activity state,[4],inducing transitions from Ins2^GFP(low) states to Ins2^GFP(high) states
CCOc1ccc(Cc2cc([C@@H]3O[C@H](CO)[C@@H](O)[C@H](O)[C@H]3O)ccc2Cl)cc1 [dapagliflozin],PCr recovery rate,[5]; [12],23.1 (20.7-25.5) s
same,acetylcarnitine levels in muscle,[5]; [12],114.56 (91.16-137.95) pmoles*mg tissue^-1
same,lipid droplet size,[5]; [12],0.28 (0.20-0.36) μm^2
same,mitochondrial network integrity,[5]; [12],1.73 (1.33-2.12)
same,mitochondrial-LD interaction,[5]; [12],12.51 (9.70-15.32) %
same,CPT1A gene expression increase,[5]; muscle biopsy,1.33 fold
same,CPT1B gene expression increase,[5]; muscle biopsy,1.13 fold
same,urinary glucose excretion,[6]; 10mg/day,36 gram/24-hour
same,24-hour RER,"[6]; 10mg/day, whole-room indirect calorimetry",0.814 ± 0.006
same,coupled mitochondrial respiration on lipid-derived substrates (O2-flux),[6]; ex vivo skeletal muscle,68.2 ± 3.2 pmol/mg/s
same,EGP after drug,T2DM and NGT subjects; NGT,2.1±0.16
same,increase in renal glucose production (RGP),T2DM and NGT subjects; NGT,0.032 mg/kg.min
same,EGP after drug,T2DM and NGT subjects; T2DM,2.43±0.15
same,increase in renal glucose production (RGP),T2DM and NGT subjects; T2DM,0.065 mg/kg.min
same,increase in total body EGP,T2DM and NGT subjects; in vivo,0.45 mg/kg.min
C=C[C@@]1(C)CC(=O)[C@]2(O)[C@@]3(C)[C@@H](O)CCC(C)(C)[C@@H]3[C@H](O)[C@H](OC(C)=O)[C@@]2(C)O1 [forskolin],change in K+-stimulated exocytosis vs diazoxide only,human delta cells,+68%
COc1ccc(Cl)cc1C(=O)NCCc1ccc(S(=O)(=O)NC(=O)NC2CCCCC2)cc1 [glibenclamide],incidence of severe hypoglycaemia,patients with T2DM,1.3 % per year
CCCCCCCCCCCCCCCC(=O)N[C@@H](CCC(=O)NCCCC[C@H](NC(=O)[C@H](C)NC(=O)[C@H](C)NC(=O)[C@H](CCC(N)=O)NC(=O)CNC(=O)[C@H](CCC(=O)O)NC(=O)[C@H](CC(C)C)NC(=O)[C@H](Cc1ccc(O)cc1)NC(=O)[C@H](CO)NC(=O)[C@H](CO)NC(=O)[C@@H](NC(=O)[C@H](CC(=O)O)NC(=O)[C@H](CO)NC(=O)[C@@H](NC(=O)[C@H](Cc1ccccc1)NC(=O)[C@@H](NC(=O)CNC(=O)[C@H](CCC(=O)O)NC(=O)[C@H](C)NC(=O)[C@@H](N)Cc1cnc[nH]1)[C@@H](C)O)[C@@H](C)O)C(C)C)C(=O)N[C@@H](CCC(=O)O)C(=O)N[C@@H](Cc1ccccc1)C(=O)N[C@H](C(=O)N[C@@H](C)C(=O)N[C@@H](Cc1c[nH]c2ccccc12)C(=O)N[C@@H](CC(C)C)C(=O)N[C@H](C(=O)N[C@@H](CCCNC(=N)N)C(=O)NCC(=O)N[C@@H](CCCNC(=N)N)C(=O)NCC(=O)O)C(C)C)[C@@H](C)CC)C(=O)O [liraglutide],PRR for gallbladder or biliary diseases,[7],5.001
"CC(C)c1nc(N(C)S(C)(=O)=O)nc(-c2ccc(F)cc2)c1/C=C/[C@@H](O)C[C@@H](O)CC(=O)O [monotherapy, rosuvastatin]",MRI-PDFF at study completion,"participants with NAFLD; baseline 18.1 (combination), 15.0 (monotherapy)",12.4%
same,CAP by transient elastography at completion,"participants with NAFLD; baseline 321 (combination), 323 (monotherapy)",311 dB/m
NC(=O)N1c2ccccc2CC(=O)c2ccccc21 [oxcarbazepine],cytokine- and ER stress-induced β-cell death,human β-cells,protected
CCc1ccc(CCOc2ccc(CC3SC(=O)NC3=O)cc2)nc1 (centres unmarked) [pioglitazone],achieved HbA1c,"[8]; 16 weeks, pioglitazone 30mg, sitagliptin 100mg, canagliflozin 100mg",59.5 mmol/mol
same,weight on therapy higher than other drugs,[8]; [95%CI],"2.6 [2.3, 2.9] kg"
CC[C@H](C)[C@H](NC(=O)[C@H](Cc1ccccc1)NC(=O)[C@H](CCC(=O)O)NC(=O)[C@H](CCCCNC(=O)COCCOCCNC(=O)COCCOCCNC(=O)CC[C@H](NC(=O)CCCCCCCCCCCCCCCCC(=O)O)C(=O)O)NC(=O)[C@H](C)NC(=O)[C@H](C)NC(=O)[C@H](CCC(N)=O)NC(=O)CNC(=O)[C@H](CCC(=O)O)NC(=O)[C@H](CC(C)C)NC(=O)[C@H](Cc1ccc(O)cc1)NC(=O)[C@H](CO)NC(=O)[C@H](CO)NC(=O)[C@@H](NC(=O)[C@H](CC(=O)O)NC(=O)[C@H](CO)NC(=O)[C@@H](NC(=O)[C@H](Cc1ccccc1)NC(=O)[C@@H](NC(=O)CNC(=O)[C@H](CCC(=O)O)NC(=O)C(C)(C)NC(=O)[C@@H](N)Cc1cnc[nH]1)[C@@H](C)O)[C@@H](C)O)C(C)C)C(=O)N[C@@H](C)C(=O)N[C@@H](Cc1c[nH]c2ccccc12)C(=O)N[C@@H](CC(C)C)C(=O)N[C@H](C(=O)N[C@@H](CCCNC(=N)N)C(=O)NCC(=O)N[C@@H](CCCNC(=N)N)C(=O)NCC(=O)O)C(C)C [semaglutide],PRR for gallbladder or biliary diseases,[7],6.267
CCCC(=O)O [sodium butyrate],Ins2 gene activity state,[4],inducing transitions from Ins2^GFP(low) states to Ins2^GFP(high) states
Bone morphogenetic protein-7 [BMP7],acceleration of wound closure,"[9]; 0.5 μg per wound/day topical, vs vehicle",20%
same,number of lymphocytes in diabetic wounds,"[9]; mouse, in vivo",did not change
same,collagen deposition higher,[9]; vs vehicle-treated wounds,35%
same,increase in area of granulation tissue,[9]; vs vehicle-treated wounds,50%
same,reduction in number of macrophages,[9]; vs vehicle-treated wounds,30%
GABA,change in K+-stimulated exocytosis vs diazoxide only,human delta cells,+66%
Irisin,change in body weight vs HFD/STZ,"HFD/STZ C57Bl/6 mice; 0.5 μg/g, 14 days",-13%
same,change in glycemia vs HFD/STZ,"HFD/STZ C57Bl/6 mice; 0.5 μg/g, 14 days, n=4",-31%
same,change in GSIS AUC vs HFD/STZ,"HFD/STZ C57Bl/6 mice; mouse, in vivo",+23%
same,change in alpha-cell area vs HFD/STZ,"HFD/STZ C57Bl/6 mice; mouse, in vivo",-49%
same,change in beta-cell area vs HFD/STZ,"HFD/STZ C57Bl/6 mice; mouse, in vivo",+34%
same,change in insulin content vs HFD/STZ,"HFD/STZ C57Bl/6 mice; mouse, in vivo",+36%
same,change in islets volume vs HFD/STZ,"HFD/STZ C57Bl/6 mice; mouse, in vivo",+61%
same,increase in beta-cell proliferation rate,HFD/STZ C57Bl/6 mice; vs SD and HFD/STZ,9 fold
same,final body weight,"C57BL/6J mice; 0.5 μg/g i.p., 4 weeks, HFD 49.67 ± 1.48",44.87 ± 1.42 g
same,fat mass,C57BL/6J mice; HFD 14.56 ± 0.43,11.75 ± 0.78 g
same,fat/weight,C57BL/6J mice; HFD 29.37 ± 0.75,26.08 ± 1.09%
dehydroaripiprazole [DARI],reduction of basal and insulin-stimulated glucose uptake,[2],≤ 70%
dulaglutide,BMI change,[10]; 26 weeks,No effect
same,incidence of diarrhoea,[10]; pooled doses,18.4%
same,incidence of nausea,[10]; pooled doses,14.6%
same,incidence of vomiting,[10]; pooled doses,15.5%
same,patients requiring rescue therapy,"[10]; pooled doses 0.75 and 1.5 mg, 26 weeks",2.9%
glucagon-like peptide-1 [GLP-1],augmentation of second phase insulin secretion vs saline-clamp,[11]; 3 months after RYGB,+233±32%
same,augmentation of second phase insulin secretion vs saline-clamp,[11]; [13],+399±84%
same,Ins2 gene activity state,[4],inducing transitions from Ins2^GFP(low) states to Ins2^GFP(high) states
glucose-dependent insulinotropic peptide [GIP],augmentation of second phase insulin secretion vs saline-clamp,[11]; 3 months after RYGB,+90±14%
same,augmentation of second phase insulin secretion vs saline-clamp,[11]; [13],+96±16%
insulin-like growth factor binding protein 7 [IGFBP7],insulin secretion normalised to total insulin,"EndoC-βH1 cells; 72 h, CTRL 5.2, n=4",4.0 %/h
same,C-peptide secretion at 20 mM glucose,"EndoC-βH1 cells; acute, CTRL 111, n=5",90 ng/mg prot/h
